Among the data in patent US20230416256A1, “SMALL MOLECULE INHIBITORS OF NF-kB INDUCING KINASE” (Janssen Pharmaceutica NV, priority 2020, published 2023) are IC50 values, retold here.

The target in experiment [1] is recombinant human NF-kappaB-inducing kinase (NIK/MAP3K14) (Homo sapiens, UniProt Q99558). Nature of the experiment: Inhibition of auto-phosphorylation of recombinant human NIK/MAP3K14 activity (AlphaScreen). Type of experiment: biochemical. The note with it: GST-tagged NIK/MAP3K14 1 nM, 5 μM ATP, 2 h at 25° C.; average of values obtained. A digest of the protocol:
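GST-tagged NIK (1 nM) auto-phosphorylated for 2 h at 25 °C with 5 μM ATP in 50 mM Tris pH 7.5, 5 mM MgCl2, 0.7% DMSO. Phospho-Ser176/180 was detected by AlphaScreen using an anti-phospho-IKK antibody. IC50 came from sigmoidal fits of % inhibition versus high (full activity) and low (no ATP) controls.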
(In general: In Alpha technology, singlet oxygen from a donor bead excites a nearby acceptor bead.)

In experiment [2] the test system is p-IKKα levels in L363 (NIK translocated multiple myeloma) cells. In words: Effect of compounds on p-IKKα levels in L363 cells (AlphaLISA SureFire Ultra). Type of experiment: cell-based, human. The note with it: Homo sapiens, L-363, 250 ng/ml BAFF stimulated, 10 μM MG132, 6 h, average of values obtained, read-out: Assay 2 IC50. The method, boiled down: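 L363 cells were BAFF-stimulated overnight (250 ng/ml) in DMEM/0.5% BSA, then exposed to an 11-point 1:3 compound series (0.3% DMSO) with BAFF and 10 μM MG132 for 6 h at 37 °C. p-IKKα (Ser176/180) was measured by AlphaLISA SureFire Ultra. IC50 was fitted from % inhibition normalized to stimulated and unstimulated controls.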

Chain of recombinant human NF-kappaB-inducing kinase (NIK/MAP3K14) (Q99558 whole entry): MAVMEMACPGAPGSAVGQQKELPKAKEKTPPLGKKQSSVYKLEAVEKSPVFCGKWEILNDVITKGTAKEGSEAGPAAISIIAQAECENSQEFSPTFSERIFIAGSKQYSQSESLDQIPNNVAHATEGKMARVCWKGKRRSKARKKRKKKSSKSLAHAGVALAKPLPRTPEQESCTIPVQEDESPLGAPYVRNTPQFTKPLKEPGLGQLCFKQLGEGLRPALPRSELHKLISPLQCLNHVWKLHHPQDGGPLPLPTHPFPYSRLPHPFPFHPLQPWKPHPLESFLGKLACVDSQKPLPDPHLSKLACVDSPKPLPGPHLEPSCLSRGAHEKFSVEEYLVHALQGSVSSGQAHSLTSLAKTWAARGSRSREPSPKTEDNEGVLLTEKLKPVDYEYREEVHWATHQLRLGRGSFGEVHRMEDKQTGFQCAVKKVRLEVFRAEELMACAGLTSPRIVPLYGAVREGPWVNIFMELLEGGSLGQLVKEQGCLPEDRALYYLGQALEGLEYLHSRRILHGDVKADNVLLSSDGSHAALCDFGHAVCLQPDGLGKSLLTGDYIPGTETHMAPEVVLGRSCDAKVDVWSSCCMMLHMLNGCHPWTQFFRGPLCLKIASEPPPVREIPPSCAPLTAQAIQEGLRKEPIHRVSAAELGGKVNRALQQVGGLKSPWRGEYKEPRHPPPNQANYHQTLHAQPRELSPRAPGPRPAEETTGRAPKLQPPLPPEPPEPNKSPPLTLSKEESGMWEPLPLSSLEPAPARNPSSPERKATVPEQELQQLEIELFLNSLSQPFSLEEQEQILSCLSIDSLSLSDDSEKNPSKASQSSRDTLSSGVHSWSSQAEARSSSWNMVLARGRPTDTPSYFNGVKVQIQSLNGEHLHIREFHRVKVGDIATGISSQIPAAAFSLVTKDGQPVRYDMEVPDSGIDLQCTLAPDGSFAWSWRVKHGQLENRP

Usually IC50 stands for the midpoint of a concentration-inhibition curve. Regarding `CN1CC[C@@](O)(c2cccc(-c3ncc(-c4c[nH]c5ncccc45)n3C)c2)C1=O` [Example 125, (R)-3-Hydroxy-1-methyl-3-(3-(1-methyl-5-(1H-pyrrolo[2,3-b]pyridin-3-yl)-1H-imidazol-2-yl)phenyl)pyrrolidin-2-one], the values for the concentration for half-maximal inhibition (IC50) in experiment [1] and in experiment [2] were 100 to 500 nM and above 500 nM, respectively.

For `CN1CC[C@@](O)(c2cccc(-c3nc(-c4ccnc5[nH]ccc45)cs3)c2)C1=O` [Example 127, (R)-3-(3-(4-(1H-Pyrrolo[2,3-b]pyridin-4-yl)thiazol-2-yl)phenyl)-3-hydroxy-1-methylpyrrolidin-2-one], the IC50 is at most 100 nM in experiment [1] and above 500 nM in experiment [2].

Regarding `CN1CC[C@@](O)(c2cccc(-c3nc(-c4ccc5cnn(C)c5c4)cs3)c2)C1=O` [Example 128, (R)-3-Hydroxy-1-methyl-3-(3-(4-(1-methyl-1H-indazol-6-yl)thiazol-2-yl)phenyl)pyrrolidin-2-one], the IC50 in experiment [1] and in experiment [2] was above 500 nM throughout.

As to `CN1CC[C@@](O)(c2cccc(-c3nc(-c4cc(N)nc5[nH]ccc45)cs3)c2)C1=O` [Example 129, (R)-3-(3-(4-(6-Amino-1H-pyrrolo[2,3-b]pyridin-4-yl)thiazol-2-yl)phenyl)-3-hydroxy-1-methylpyrrolidin-2-one], the IC50 in experiment [1] and in experiment [2] was above 500 nM in each case.

As to `CN1CC[C@@](O)(c2cccc(-c3nc(-c4c(Cl)cnc5[nH]ccc45)cs3)c2)C1=O` [Example 130, (R)-3-(3-(4-(5-Chloro-1H-pyrrolo[2,3-b]pyridin-4-yl)thiazol-2-yl)phenyl)-3-hydroxy-1-methylpyrrolidin-2-one], the IC50 in experiment [1] and in experiment [2] was above 500 nM throughout.

Take `CN1CC[C@@](O)(c2cccc(-c3nc(-c4cccc5[nH]ncc45)cs3)c2)C1=O` [Example 131, (R)-3-(3-(4-(1H-Indazol-4-yl)thiazol-2-yl)phenyl)-3-hydroxy-1-methylpyrrolidin-2-one]: the concentration for half-maximal inhibition (IC50) in experiment [1] and in experiment [2] was above 500 nM throughout.

Take `CN1CC[C@@](O)(c2cccc(-c3nc(-c4c(F)cnc5[nH]ccc45)cs3)c2)C1=O` [Example 132, (R)-3-(3-(4-(5-Fluoro-1H-pyrrolo[2,3-b]pyridin-4-yl)thiazol-2-yl)phenyl)-3-hydroxy-1-methylpyrrolidin-2-one]: the IC50 in experiment [1] and in experiment [2] was above 500 nM in each case.
